# Experimental data reported in patent US20110296540A1, “ASSAY FOR SCREENING ANTIDEPRESSANTS” (priority 2008, published 2011).
# Where two headings read alike, the source gives them in different places.
# Tests used:
# [1] = test system: tet0-1A homozygous mice that do not carry the tTS transgene; assay: Control for the effects of doxycycline on baseline anxiety and depression-related behavior; assay type: in vivo; details: transgene-negative littermates
# Text: FIGS. 27A-C Control for the effects of doxycycline on baseline anxiety and depression-related behavior.
# (C) Likewise, no differences were detected in the forced swim test on either the first (i) or second (ii) day of testing (N=47).
# This was accomplished using a novel bigenic system consisting of two parts: 1) insertion of the tet0 DNA regulatory element into the promoter region of the Htr1a gene, to create the tet0-1A allele and 2) raphe-specific expression of the tetracycline-dependent transcriptional suppressor (tTS) under the control of the previously characterized 540Z Pet-1 promoter fragment (P. M. Fisher et al., Nat Neurosci 9, 1362 (Nov., 2006)). […] Removal of doxycycline for four weeks beginning at postnatal day (PND) 50 creates an adult population of animals with lower expression of 5-HT1A autoreceptors (1A-Low) (FIG. 21b). Four weeks after doxycycline removal, suppression has reached maximal levels (data not shown).
# 5-HT1A autoreceptors [2] = biological target: T1, 5-HT1A autoreceptors (Mus musculus, UniProt Q64264)
# T1 sequence (Q64264 1-421): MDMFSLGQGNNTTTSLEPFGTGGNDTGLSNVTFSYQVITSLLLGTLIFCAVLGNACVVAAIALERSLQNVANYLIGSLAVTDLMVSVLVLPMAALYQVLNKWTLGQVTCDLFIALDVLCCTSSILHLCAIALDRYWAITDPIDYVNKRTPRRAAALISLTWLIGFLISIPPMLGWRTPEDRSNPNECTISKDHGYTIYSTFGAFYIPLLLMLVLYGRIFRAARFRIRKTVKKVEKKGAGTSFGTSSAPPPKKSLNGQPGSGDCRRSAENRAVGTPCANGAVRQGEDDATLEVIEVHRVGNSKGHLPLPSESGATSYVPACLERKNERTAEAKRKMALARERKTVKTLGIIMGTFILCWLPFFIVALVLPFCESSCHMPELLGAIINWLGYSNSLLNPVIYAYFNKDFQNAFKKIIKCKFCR
# Method: (A) 8-OH DPAT-induced hypothermia in 1A-High and 1A-Low mice. Following establishment of baseline body temperature, animals received IP injections of 0.1 mg/kg 8-OHDAPT, 0.5 mg/kg 8-OH DPAT, or saline (N=5/dose/group). Values are expressed as core temperature change from the last recorded baseline temperature.
# 5-HT1A autoreceptors [3] = biological target: T1, 5-HT1A autoreceptors; assay: Whole cell recordings in the dorsal raphe, response to 5-HT1A agonist; assay type: cell-based; parameters: endogenous in cells; host or cells: Serotonergic neurons of the raphe nuclei in mice homozygous for tetO-1A with one copy of Pet-tTS; details: 1A-High mice vs. 1A-Low mice; 100 nM
# Text: Downward deflections reflect spontaneous synaptic activity.
# Much of this difference is accounted for by a smaller proportion of serotonergic neurons responding to the agonist challenge in the 1A-Low mice.
# C57BL/6Ntac mice [4] = assay: Open Field paradigm, chronic corticosterone model; assay type: in vivo; details: 3-week antidepressant treatment in corticosterone-treated mice; imipramine 40, fluoxetine 18 mg/kg/day
# Text: The procedure described previously was used (Dulawa et al., 2004). Motor activity was quantified in four Plexiglas open field boxes 43 times 43 cm2 (MED Associates, Georgia, Vt.). Two sets of 16 pulse-modulated infrared photobeams were placed on opposite walls 2.5-cm apart to record x-y ambulatory movements. Activity chambers were computer interfaced for data sampling at 100-ms resolution. The computer defined grid lines that divided each Open Field into center and surround regions, with each of four lines being 11 cm from each wall. Dependent measures in the center were the total time and the number of entries over a 30-min period of test. The whole session was also divided in […] to analyze the time spent in the center every 5 min. The overall motor activity was quantified as the total distance traveled (cm) or distance traveled in the center divided by total distance traveled.
# Mice were anesthetized with ketamine and xylazine (100 mg/ml ketamine; 20 mg/ml xylazine), placed in a stereotaxic frame and exposed to cranial irradiation using a Siemens Stabilopan X-ray system operated at 300 kVp and 20 mA. Animals were protected with a lead shield that covered the entire body, but left unshielded a 3.22×11-mm treatment field above the hippocampus (interaural 3.00 to 0.00) exposed to X-Ray. Dosimetry was done using a Capintec Model PR06G electrometer ionization chamber and Kodak Readypack Radiographic XV films. The corrected dose rate was approximately 1.8 Gy per min at a source to skin distance of 30 cm. The procedure lasted 2 min and 47 sec, delivering a total of 5 Gy. Three 5 Gy doses were delivered on days 1, 4 and 8.
# C57BL/6Ntac mice [5] = assay: Forced Swim Test, chronic corticosterone model; assay type: in vivo; details: for immobility duration (FST): mean±SEM
# HPA axis = assay: Stress evoked increase of corticosterone levels; assay type: in vivo, mice; details: acute swim stress; baseline conditions and after chronic corticosterone treatment
# Method: Adult male C57BL/6Ntac mice were exposed to a 6 minutes swim stress. […]. Blood was collected into ice-chilled tubes containing EDTA and centrifuged at 3000 rpm for 10 min (at 4° C.) for separation of plasma, and plasma samples were stored at −80° C. until assayed. […]; Diagnostic Systems Laboratories, Inc. Webster, Tex.; sensitivity limit: 20 ng/ml). ACTH was measured directly in plasma using an ImmuChem™ Double Antibody hACTH 1251 RIA kit (No. 07-106101; MP Biomedicals, LLC, Orangeburg, N.Y.) with a sensitivity limit ˜5.7 pg/ml. All samples were measured simultaneously to reduce inter-assay variability.
smiles,measurement,setting,value
C[C@H]1c2cccc(O)c2C(=O)C2=C(O)[C@]3(O)C(=O)C(C(N)=O)=C(O)[C@@H](N(C)C)[C@@H]3[C@@H](O)[C@@H]21 [doxycycline],"effect on behavioral measures (Open Field, Light/Dark choice test, forced swim test)",[1],no effect
CCCN(CCC)C1CCc2cccc(O)c2C1 (stereo not shown) [8-OH DPAT],hypothermic response to 5-HT1A agonist challenge,"5-HT1A autoreceptors [2]; 1A-High mice, 0.1 and 0.5 mg/kg IP",robust and dose-dependent hypothermic response
same,hypothermic response to 8-OH DPAT,"5-HT1A autoreceptors [2]; 1A-High vehicle control mice, 0.5 mg/kg i.p.",robust hypothermic response
same,hypothermic response to 5-HT1A agonist challenge,"5-HT1A autoreceptors [2]; 1A-Low mice, detected only at the highest dose",attenuated response
NCCc1c[nH]c2ccc(C(N)=O)cc12 [5-CT],average current elicited by agonist challenge in serotonergic neurons,5-HT1A autoreceptors [3],significantly higher
CN(C)CCCN1c2ccccc2CCc2ccccc21 [imipramine],corticosterone-induced anxiety phenotype in the Open Field (time and entries in the center),C57BL/6Ntac mice [4],reversed
same,immobility duration (FST),"C57BL/6Ntac mice [5]; corticosterone treated animals, alone or with antidepressant",296.8 s
same,immobility duration (FST),C57BL/6Ntac mice [5]; non-corticosterone treated animals,298.5 s
same,"duration of immobility (FST), effect","C57BL/6Ntac mice [5]; two-way ANOVA, corticosterone 7 weeks, antidepressants last 3 weeks",decreased
same,stress induced corticosterone levels,HPA axis,had no effect
